Source: patent publication EP4603105A1, “PHARMACEUTICAL COMPOSITION CONTAINING CYCLIC COMPOUND HAVING SELECTIVE KRAS INHIBITORY EFFECT AGAINST HRAS AND NRAS” (CHUGAI SEIYAKU KABUSHIKI KAISHA, priority 2022, dated 2024)
Read-outs that look alike come from different tables or passages of the source.

Assays:
[1] = system: human lung cancer strain NCI-H441; assay: NCI-H441 cell proliferation inhibitory activity (CellTiter-Glo, 4 days); type: cell-based; conditions: read-out: NCl-H441 IC50
Experimental: A test compound was dispensed into a U-bottom 384-well plate as 40 nL serially diluted dimethyl sulfoxide solutions using a liquid handler Echo (LABCYTE). […] This cell suspension was dispensed in an amount of 40 µL per well into a plate containing the test compound, and cultured at 37°C in a 5% carbon dioxide gas incubator. Four days later, 20 µL of CellTiter-Glo (registered trademark) (Promega) was added to each well and […] was measured. […]

[2] = molecular target: GDP-bound NRAS wild-type protein (Homo sapiens, UniProt P01111); assay: Binding to NRAS by surface plasmon resonance (SPR), KD and KD ratio to KRAS
Procedure, shortened: (§1)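 Each cycle, GDP-bound biotin-Avi RAS was captured (~100–300 RU), compound concentrations were injected low to high for 75 s each at 100 µL/min, then the chip was regenerated. Buffer: HBS pH 7.4, 10 mM MgCl2, 10 µM GDP, 1 mM DTT, 4% DMSO; 30°C. KD from a 1:1 binding model.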

[3] = molecular target: HRAS wild-type protein (Homo sapiens, UniProt P01112); assay: Binding to HRAS by surface plasmon resonance (SPR), KD and KD ratio to KRAS
Procedure, shortened: as §1

[4] = molecular target: GDP-bound KRAS wild-type protein (Homo sapiens, UniProt P01116); assay: Binding to KRAS by surface plasmon resonance (SPR), dissociation constant KD
Procedure, shortened: as §1

[5] = ratio of KD for GDP-bound NRAS wild-type protein to KD for KRAS
[6] = ratio of KD for HRAS wild-type protein to KD for KRAS
[7] = 50% proliferation inhibitory concentration, four days
[8] = ratio of KD with respect to GDP-bound NRAS wild-type protein to KD with respect to KRAS
[9] = ratio of KD with respect to HRAS wild-type protein to KD with respect to KRAS
[10] = Single Cycle Kinetics, 1:1 binding model

Sequence of HRAS wild-type protein (P01112 whole entry): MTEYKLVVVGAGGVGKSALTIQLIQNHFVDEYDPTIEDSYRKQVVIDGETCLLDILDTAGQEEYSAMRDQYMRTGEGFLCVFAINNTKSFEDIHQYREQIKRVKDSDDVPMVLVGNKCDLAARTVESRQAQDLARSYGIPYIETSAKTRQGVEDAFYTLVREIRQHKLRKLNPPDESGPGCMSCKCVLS
Sequence of GDP-bound NRAS wild-type protein (P01111 whole entry): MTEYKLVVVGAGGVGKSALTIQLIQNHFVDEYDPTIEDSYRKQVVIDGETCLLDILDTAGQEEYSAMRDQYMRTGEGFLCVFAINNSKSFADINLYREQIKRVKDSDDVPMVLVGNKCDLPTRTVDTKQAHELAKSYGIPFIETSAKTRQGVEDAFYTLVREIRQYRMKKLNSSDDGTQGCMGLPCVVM
Sequence of GDP-bound KRAS wild-type protein (P01116 1-188 isoform P01116-2): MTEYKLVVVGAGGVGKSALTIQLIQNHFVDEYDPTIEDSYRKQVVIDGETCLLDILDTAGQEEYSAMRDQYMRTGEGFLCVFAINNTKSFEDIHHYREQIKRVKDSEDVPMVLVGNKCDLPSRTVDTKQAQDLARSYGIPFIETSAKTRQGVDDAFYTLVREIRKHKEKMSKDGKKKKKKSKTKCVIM

Row | IC50 ([1]; NCI-H441 cells, 4 days) [nM] | IC50 [1, 7] [nM] | SMILES | HRAS /KRAS [3, 6] | also measured
1 | 68.5 |  | CCC(CC)[C@H]1C(=O)N(C)[C@H](C(=O)N(C)C)CC(=O)N(C)[C@@H](COC)C(=O)N[C@@H]([C@@H](C)CC)C(=O)N(C)CC(=O)N(C)[C@H]2C/C=C\CCN(C2=O)[C@@H](Cc2ccc(C(F)(F)F)cc2)C(=O)N(C)CC(=O)N[C@@H](CCc2ccc(Cl)c(Cl)c2)C(=O)N2C[C@H](OC3CCCC3)C[C@H]2C(=O)NC2(CC(C)(C)C2)C(=O)N1C [PP2648] | A (a compound having 10 or more and less than 20 is denoted as A) | NRAS /KRAS [2, 5]: A (a compound having 10 or more and less than 20 is denoted as A); Kd ([4]; 1:1 binding model): 0.85 nM
2 | 30.7 |  | CCCOC[C@H]1C(=O)N[C@@H]([C@@H](C)OCCC)C(=O)N(CCC)CC(=O)N(C)[C@H]2C/C=C\CCN(C2=O)[C@@H](Cc2ccc(C(F)F)cc2)C(=O)N(C)CC(=O)N[C@@H](CCc2cc(F)c(C(F)(F)F)c(F)c2)C(=O)N2C[C@H](OC(C)C)C[C@H]2C(=O)N(C)C2(CCC2)C(=O)N(C)[C@@H](C(CC)CC)C(=O)N(C)[C@H](C(=O)N(C)C)CC(=O)N1C [PP3488] | A (a compound having 10 or more and less than 20 is denoted as A) | NRAS /KRAS [2, 5]: A (a compound having 10 or more and less than 20 is denoted as A); Kd ([4]; Single Cycle Kinetics): 0.71 nM
3 |  | 38.8 | CCO[C@@H]1C[C@H]2C(=O)NC3(CCC3)C(=O)N(C)[C@@H](C(CC)CC)C(=O)N(C)[C@H](C(=O)N(C)C)CC(=O)N(C)[C@@H](CC3CC3)C(=O)N[C@@H]([C@@H](C)CC)C(=O)N(C)CC(=O)N(C)[C@H]3C/C=C\CCN(C3=O)[C@@H](CC3CCCCC3)C(=O)N(C)CC(=O)N[C@@H](CCc3cc(F)c(C(F)(F)F)c(F)c3)C(=O)N2C1 [PP1428] |  | NRAS /KRAS [2, 8]: AA (a compound having 20 or more is denoted as AA); HRAS /KRAS [3, 9]: A (a compound having 10 or more and less than 20 is denoted as A); Kd [4, 10]: 0.87 nM
4 |  | 12.8 | CCO[C@@H]1C[C@H]2C(=O)NC3(CCC3)C(=O)N(C)[C@@H](C3CCCC3)C(=O)N(C)[C@H](C(=O)N3CCOCC3)CC(=O)N(C)[C@@H](CC)C(=O)N[C@@H]([C@@H](C)CC)C(=O)N3CC[C@H]3C(=O)N(C)[C@H]3C[C@@H](C)[C@@H](C)CN(C3=O)[C@@H](Cc3ccc(C(F)(F)F)cc3)C(=O)N(C)CC(=O)N[C@@H](CCc3cc(F)c(C(F)(F)F)c(F)c3)C(=O)N2C1 [PP1351] |  | NRAS /KRAS [2, 8]: A (a compound having 10 or more and less than 20 is denoted as A); HRAS /KRAS [3, 9]: B (a compound having 3 or more and less than 10 is denoted as B); Kd [4, 10]: 0.13 nM
5 | 10.1 |  | CCC[C@H]1C(=O)N[C@@H]([C@@H](C)CC)C(=O)N(C)CC(=O)N(C)[C@H]2C/C=C\CCN(C2=O)[C@@H](Cc2ccc(C(F)(F)F)cc2)C(=O)N(C)CC(=O)N[C@@H](CCc2cc(F)c(C(F)(F)F)c(F)c2)C(=O)N2CC3(CC3)C[C@H]2C(=O)NC2(CCC2)C(=O)N(C)[C@@H](C(CC)CC)C(=O)N(C)[C@H](C(=O)N(C)C)CC(=O)N1C [PP3402] | B (a compound having 3 or more and less than 10 is denoted as B) | NRAS /KRAS [2, 5]: AA (a compound having 20 or more is denoted as AA); Kd ([4]; Single Cycle Kinetics): 0.31 nM
6 | 33.4 |  | CC[C@H](C)[C@@H]1NC(=O)[C@H](COC)N(C)C(=O)C[C@@H](C(=O)N(C)C)N(C)C(=O)[C@H](C2CCCC2)N(C)C(=O)C2(CC(C)(C)C2)NC(=O)[C@@H]2C[C@@H](OC3CCCC3)CN2C(=O)[C@H](CCc2cc(F)c(C(F)(F)F)c(F)c2)NC(=O)CN(C)C(=O)[C@H](Cc2ccc(C)cc2)N2CC/C=C\C[C@@H](C2=O)N(C)C(=O)CN(C2CC2)C1=O [PP2626] | A (a compound having 10 or more and less than 20 is denoted as A) | NRAS /KRAS [2, 5]: A (a compound having 10 or more and less than 20 is denoted as A)
7 | 71.9 |  | CCCOC[C@H]1C(=O)N[C@@H]([C@@H](C)OCC)C(=O)N(C)CC(=O)N(C)[C@H]2C/C=C\CCN(C2=O)[C@@H](Cc2ccc(C)cc2)C(=O)N(C)CC(=O)N[C@@H](CCc2ccc(C(F)(F)F)c(OC)c2)C(=O)N2C[C@@H](C)C[C@H]2C(=O)NC2(CC(C)(C)C2)C(=O)N(C)[C@@H](C2CCCC2)C(=O)N(C)[C@H](C(=O)N(C)CC)CC(=O)N1C [PP2423] | A (a compound having 10 or more and less than 20 is denoted as A) | NRAS /KRAS [2, 5]: A (a compound having 10 or more and less than 20 is denoted as A)
8 | 562 |  | CCC(CC)[C@H]1C(=O)N(C)[C@H](C(=O)N(C)C)CC(=O)N(C)[C@@H](COC)C(=O)N[C@@H]([C@@H](C)CC)C(=O)N(C2CC2)CC(=O)N(C)[C@H]2C/C=C\CCN(C2=O)[C@@H](CC2CCCCC2)C(=O)N(C)CC(=O)N[C@@H](CCc2ccc(Cl)c(Cl)c2)C(=O)N2C[C@H](OC(C)C)C[C@H]2C(=O)NC2(CC(C)(C)C2)C(=O)N1C [PP2517] | A (a compound having 10 or more and less than 20 is denoted as A) | Kd ([4]; 1:1 binding model): 9.3 nM
9 |  | 386 | CCO[C@@H]1C[C@H]2C(=O)NC3(CCC3)C(=O)N(C)[C@@H](C3CCCC3)C(=O)N(C)[C@@H](C(=O)N(C)C)CC(=O)N(C)[C@@H](CC3CCCC3)C(=O)N[C@@H]([C@@H](C)CC)C(=O)N(C)CC(=O)N(C)[C@H]3C/C=C\CCN(C3=O)[C@@H](Cc3ccc(C(F)(F)F)cc3)C(=O)N(C)CC(=O)N[C@@H](CCc3cc(F)c(C(F)(F)F)c(F)c3)C(=O)N2C1 [PP1235] |  | NRAS /KRAS [2, 8]: B (a compound having 3 or more and less than 10 is denoted as B); HRAS /KRAS [3, 9]: C (A compound having a KD ratio of 0.1 or more and less than 3 is denoted as C)
10 |  | 37.1 | CCO[C@@H]1C[C@H]2C(=O)NC3(CCC3)C(=O)N(C)[C@@H](C3CCCC3)C(=O)N(C)[C@H](C(=O)N(C)C)CC(=O)N(C)[C@@H](CC3CCCC3)C(=O)N[C@@H]([C@@H](C)CC)C(=O)N(C)CC(=O)N(C)[C@H]3C/C=C\CCN(C3=O)[C@@H](CC3CCCCC3)C(=O)N(C)CC(=O)N[C@@H](CCc3cc(F)c(C(F)(F)F)c(F)c3)C(=O)N2C1 [PP1472] |  | 
11 |  | 33.2 | CCO[C@@H]1C[C@H]2C(=O)NC3(CCC3)C(=O)N(C)[C@@H](C3CCCC3)C(=O)N(C)[C@H](C(=O)N(C)C)CC(=O)N(C)[C@@H](CC)C(=O)N[C@@H]([C@@H](C)CC)C(=O)N(C)CC(=O)N(C)[C@H]3C/C=C\CCN(C3=O)[C@@H](CC3CCCCC3)C(=O)N(C)CC(=O)N[C@@H](CCc3cc(F)c(C(F)(F)F)c(F)c3)C(=O)N2C1 [PP1466] |  | 
12 | 15.1 |  | CCO[C@@H]1C[C@H]2C(=O)NC3(CC(C)(C)C3)C(=O)N(C)[C@@H](C3CCCC3)C(=O)N(C)[C@H](C(=O)N(C)CC)CC(=O)N(C)[C@@H]([C@H](C)OC)C(=O)N[C@@H]([C@@H](C)CC)C(=O)N(C)CC(=O)N(C)[C@H]3C/C=C\CCN(C3=O)[C@@H](Cc3ccc(C(F)(F)F)cc3)C(=O)N(C)CC(=O)N[C@@H](CCc3ccc(C(F)(F)F)c(Cl)c3)C(=O)N2C1 [PP3218] |  | 
13 |  | 24.1 | CCCCCC[C@H]1C(=O)N[C@@H]([C@@H](C)CC)C(=O)N(C)CC(=O)N(C)[C@H]2C/C=C\CCN(C2=O)[C@@H](Cc2ccc(C(F)(F)F)cc2)C(=O)N(C)CC(=O)N[C@@H](CCc2cc(F)c(C(F)(F)F)c(F)c2)C(=O)N2C[C@H](OCC)C[C@H]2C(=O)NC2(CCC2)C(=O)N(C)[C@@H](C(CC)CC)C(=O)N(C)[C@H](C(=O)N(C)C)CC(=O)N1C [PP1202] |  | Kd [4, 10]: 0.4 nM
14 | 22.1 |  | CCO[C@@H]1C[C@H]2C(=O)NC3(CC(C)(C)C3)C(=O)N(C)[C@@H](C3CCCC3)C(=O)N(C)[C@H](C(=O)N(C)CC)CC(=O)N(C)[C@@H]([C@H](C)OC)C(=O)N[C@@H]([C@@H](C)CC)C(=O)N(C)CC(=O)N(C)[C@H]3C/C=C\CCN(C3=O)[C@@H](Cc3ccc(C(F)(F)F)cc3)C(=O)N(C)CC(=O)N[C@@H](CCc3ccc(C(F)(F)F)c(OC)c3)C(=O)N2C1 [PP3216] |  | 
15 |  | 20.1 | CC[C@H](C)[C@@H]1NC(=O)[C@H](CC)N(C)C(=O)C[C@@H](C(=O)N2CCOCC2)N(C)C(=O)[C@H](C2CCCC2)N(C)C(=O)C2(CCCC2)NC(=O)[C@@H]2CCCN2C(=O)[C@H](CCc2cc(F)c(C(F)(F)F)c(F)c2)NC(=O)CN(C)C(=O)[C@H](Cc2ccc(C(F)(F)F)cc2)N2CC(C)[C@@H](C)C[C@@H](C2=O)N(C)C(=O)CN(C)C1=O (stereo partly shown) [PP1350] |  | NRAS /KRAS [2, 8]: B (a compound having 3 or more and less than 10 is denoted as B); HRAS /KRAS [3, 9]: B (a compound having 3 or more and less than 10 is denoted as B)
16 |  | 50.1 | CCC[C@H]1C(=O)N[C@@H]([C@@H](C)CC)C(=O)N(C)CC(=O)N(C)[C@H]2C/C=C\CCN(C2=O)[C@@H](CC2CCC(F)(F)CC2)C(=O)N(C)CC(=O)N[C@@H](CCc2cc(F)c(C(F)(F)F)c(F)c2)C(=O)N2C[C@H](OCC)C[C@H]2C(=O)NC2(CCC2)C(=O)N(C)[C@@H](C2CCCC2)C(=O)N(C)[C@H](C(=O)N(C)C)CC(=O)N1C [PP1450] |  | 
17 |  | 10.2 | CCO[C@@H]1C[C@H]2C(=O)NC3(CCC3)C(=O)N(C)[C@@H](C3CCCC3)C(=O)N(C)[C@H](C(=O)N3CCOCC3)CC(=O)N(C)[C@@H](CC)C(=O)N[C@@H]([C@@H](C)CC)C(=O)N(C)CC(=O)N(C)[C@H]3C/C=C\CCN(C3=O)[C@@H](Cc3ccc(C(F)(F)F)cc3)C(=O)N(C)CC(=O)N[C@@H](CCc3ccc(C(F)(F)F)c(Cl)c3)C(=O)N2C1 [PP1281] |  | 
